Experimental findings from patent US20200239530A1, “COMPOUNDS AND METHODS OF MODULATING PROTEIN DEGRADATION” (Vividion Therapeutics, Inc., priority 2017, published 2020) are described below.

Experiment in all cases: Cysteine liganding, probe competition
Common to all, as to assay type: binding

Assay [1] addresses T1, RRP8 Ribosomal RNA-processing protein 8 (Homo sapiens, UniProt O43159).
T1 construct: Cells were resuspended in cold PBS on ice and sonicated with a probe sonicator to achieve lysis; endogenous in cells
T1 sequence (O43159 1-456): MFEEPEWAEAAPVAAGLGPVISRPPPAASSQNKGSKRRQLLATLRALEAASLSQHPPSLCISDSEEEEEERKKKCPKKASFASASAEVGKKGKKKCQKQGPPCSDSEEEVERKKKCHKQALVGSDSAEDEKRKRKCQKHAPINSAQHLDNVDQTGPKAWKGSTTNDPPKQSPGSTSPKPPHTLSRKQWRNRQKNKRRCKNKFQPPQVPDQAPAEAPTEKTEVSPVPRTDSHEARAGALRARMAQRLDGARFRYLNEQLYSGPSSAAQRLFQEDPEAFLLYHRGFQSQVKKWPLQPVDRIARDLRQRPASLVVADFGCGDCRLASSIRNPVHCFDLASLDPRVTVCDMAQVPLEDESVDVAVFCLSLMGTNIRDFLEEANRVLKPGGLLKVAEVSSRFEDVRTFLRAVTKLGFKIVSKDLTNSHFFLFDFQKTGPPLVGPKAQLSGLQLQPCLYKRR
The method in brief: (§1)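 Probe competition in native proteome: 5 mg/ml lysate, compound 1 hr 25° C, then desthiobiotin iodoacetamide (10 mM stock) 1 hr 25° C; acetone ppt, urea/DTT reduction, iodoacetamide alkylation, trypsin, streptavidin pull-down.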

The target in assay [2] is T2, HECTD1 E3 ubiquitin-protein ligase HECTD1 (Homo sapiens, UniProt Q9ULT8).
T2 construct: Cells were resuspended in cold PBS on ice and sonicated with a probe sonicator to achieve lysis; endogenous in cells
The procedure, abridged:
as §1

The target in assay [3] is T3, RNF40 E3 ubiquitin-protein ligase BRE1B (Homo sapiens, UniProt O75150).
T3 construct: Cells were resuspended in cold PBS on ice and sonicated with a probe sonicator to achieve lysis; endogenous in cells
The procedure, abridged: as §1

For assay [4], the target named is T4, NUBP1 Cytosolic Fe—S cluster assembly factor NUBP1 (Homo sapiens, UniProt P53384).
T4 construct: Cells were resuspended in cold PBS on ice and sonicated with a probe sonicator to achieve lysis; endogenous in cells
T4 sequence (P53384 1-320): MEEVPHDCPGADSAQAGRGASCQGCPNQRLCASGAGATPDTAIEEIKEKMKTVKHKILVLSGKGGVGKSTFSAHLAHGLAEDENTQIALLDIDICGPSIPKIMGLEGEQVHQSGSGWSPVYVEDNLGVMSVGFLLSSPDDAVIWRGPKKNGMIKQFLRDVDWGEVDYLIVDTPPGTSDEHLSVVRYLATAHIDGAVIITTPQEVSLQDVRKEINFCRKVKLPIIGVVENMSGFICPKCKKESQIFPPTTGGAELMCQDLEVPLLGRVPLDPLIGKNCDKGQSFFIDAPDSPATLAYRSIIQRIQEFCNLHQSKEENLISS
Particulars: for Liganded: NUBP1 Res# 31, uniprot P53384. The method in brief:
as §1

T3 sequence (O75150 whole entry): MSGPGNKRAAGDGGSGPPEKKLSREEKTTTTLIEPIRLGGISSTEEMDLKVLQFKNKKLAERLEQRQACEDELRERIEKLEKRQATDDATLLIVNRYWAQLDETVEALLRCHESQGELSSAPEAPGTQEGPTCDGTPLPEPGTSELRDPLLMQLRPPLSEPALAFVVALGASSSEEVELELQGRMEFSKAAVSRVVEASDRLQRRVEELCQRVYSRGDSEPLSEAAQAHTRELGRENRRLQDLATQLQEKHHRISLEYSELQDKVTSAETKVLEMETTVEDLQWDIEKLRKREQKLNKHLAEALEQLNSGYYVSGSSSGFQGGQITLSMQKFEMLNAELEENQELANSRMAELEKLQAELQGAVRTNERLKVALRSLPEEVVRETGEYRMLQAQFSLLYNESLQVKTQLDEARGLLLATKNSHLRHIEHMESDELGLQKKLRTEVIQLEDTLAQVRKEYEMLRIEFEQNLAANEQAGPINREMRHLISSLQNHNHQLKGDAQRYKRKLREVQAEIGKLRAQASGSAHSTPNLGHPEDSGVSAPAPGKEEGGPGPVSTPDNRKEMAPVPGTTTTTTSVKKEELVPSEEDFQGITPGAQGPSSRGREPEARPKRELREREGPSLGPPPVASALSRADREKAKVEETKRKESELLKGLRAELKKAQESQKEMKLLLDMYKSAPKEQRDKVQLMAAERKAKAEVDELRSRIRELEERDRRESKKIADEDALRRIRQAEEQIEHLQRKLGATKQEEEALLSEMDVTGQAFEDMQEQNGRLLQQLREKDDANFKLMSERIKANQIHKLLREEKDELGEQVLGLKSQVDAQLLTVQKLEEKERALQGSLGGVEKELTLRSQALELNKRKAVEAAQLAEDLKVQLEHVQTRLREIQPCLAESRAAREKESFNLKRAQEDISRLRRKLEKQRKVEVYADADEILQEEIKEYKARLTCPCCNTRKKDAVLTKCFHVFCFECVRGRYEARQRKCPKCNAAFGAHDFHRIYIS
T2 sequence (Q9ULT8 whole entry): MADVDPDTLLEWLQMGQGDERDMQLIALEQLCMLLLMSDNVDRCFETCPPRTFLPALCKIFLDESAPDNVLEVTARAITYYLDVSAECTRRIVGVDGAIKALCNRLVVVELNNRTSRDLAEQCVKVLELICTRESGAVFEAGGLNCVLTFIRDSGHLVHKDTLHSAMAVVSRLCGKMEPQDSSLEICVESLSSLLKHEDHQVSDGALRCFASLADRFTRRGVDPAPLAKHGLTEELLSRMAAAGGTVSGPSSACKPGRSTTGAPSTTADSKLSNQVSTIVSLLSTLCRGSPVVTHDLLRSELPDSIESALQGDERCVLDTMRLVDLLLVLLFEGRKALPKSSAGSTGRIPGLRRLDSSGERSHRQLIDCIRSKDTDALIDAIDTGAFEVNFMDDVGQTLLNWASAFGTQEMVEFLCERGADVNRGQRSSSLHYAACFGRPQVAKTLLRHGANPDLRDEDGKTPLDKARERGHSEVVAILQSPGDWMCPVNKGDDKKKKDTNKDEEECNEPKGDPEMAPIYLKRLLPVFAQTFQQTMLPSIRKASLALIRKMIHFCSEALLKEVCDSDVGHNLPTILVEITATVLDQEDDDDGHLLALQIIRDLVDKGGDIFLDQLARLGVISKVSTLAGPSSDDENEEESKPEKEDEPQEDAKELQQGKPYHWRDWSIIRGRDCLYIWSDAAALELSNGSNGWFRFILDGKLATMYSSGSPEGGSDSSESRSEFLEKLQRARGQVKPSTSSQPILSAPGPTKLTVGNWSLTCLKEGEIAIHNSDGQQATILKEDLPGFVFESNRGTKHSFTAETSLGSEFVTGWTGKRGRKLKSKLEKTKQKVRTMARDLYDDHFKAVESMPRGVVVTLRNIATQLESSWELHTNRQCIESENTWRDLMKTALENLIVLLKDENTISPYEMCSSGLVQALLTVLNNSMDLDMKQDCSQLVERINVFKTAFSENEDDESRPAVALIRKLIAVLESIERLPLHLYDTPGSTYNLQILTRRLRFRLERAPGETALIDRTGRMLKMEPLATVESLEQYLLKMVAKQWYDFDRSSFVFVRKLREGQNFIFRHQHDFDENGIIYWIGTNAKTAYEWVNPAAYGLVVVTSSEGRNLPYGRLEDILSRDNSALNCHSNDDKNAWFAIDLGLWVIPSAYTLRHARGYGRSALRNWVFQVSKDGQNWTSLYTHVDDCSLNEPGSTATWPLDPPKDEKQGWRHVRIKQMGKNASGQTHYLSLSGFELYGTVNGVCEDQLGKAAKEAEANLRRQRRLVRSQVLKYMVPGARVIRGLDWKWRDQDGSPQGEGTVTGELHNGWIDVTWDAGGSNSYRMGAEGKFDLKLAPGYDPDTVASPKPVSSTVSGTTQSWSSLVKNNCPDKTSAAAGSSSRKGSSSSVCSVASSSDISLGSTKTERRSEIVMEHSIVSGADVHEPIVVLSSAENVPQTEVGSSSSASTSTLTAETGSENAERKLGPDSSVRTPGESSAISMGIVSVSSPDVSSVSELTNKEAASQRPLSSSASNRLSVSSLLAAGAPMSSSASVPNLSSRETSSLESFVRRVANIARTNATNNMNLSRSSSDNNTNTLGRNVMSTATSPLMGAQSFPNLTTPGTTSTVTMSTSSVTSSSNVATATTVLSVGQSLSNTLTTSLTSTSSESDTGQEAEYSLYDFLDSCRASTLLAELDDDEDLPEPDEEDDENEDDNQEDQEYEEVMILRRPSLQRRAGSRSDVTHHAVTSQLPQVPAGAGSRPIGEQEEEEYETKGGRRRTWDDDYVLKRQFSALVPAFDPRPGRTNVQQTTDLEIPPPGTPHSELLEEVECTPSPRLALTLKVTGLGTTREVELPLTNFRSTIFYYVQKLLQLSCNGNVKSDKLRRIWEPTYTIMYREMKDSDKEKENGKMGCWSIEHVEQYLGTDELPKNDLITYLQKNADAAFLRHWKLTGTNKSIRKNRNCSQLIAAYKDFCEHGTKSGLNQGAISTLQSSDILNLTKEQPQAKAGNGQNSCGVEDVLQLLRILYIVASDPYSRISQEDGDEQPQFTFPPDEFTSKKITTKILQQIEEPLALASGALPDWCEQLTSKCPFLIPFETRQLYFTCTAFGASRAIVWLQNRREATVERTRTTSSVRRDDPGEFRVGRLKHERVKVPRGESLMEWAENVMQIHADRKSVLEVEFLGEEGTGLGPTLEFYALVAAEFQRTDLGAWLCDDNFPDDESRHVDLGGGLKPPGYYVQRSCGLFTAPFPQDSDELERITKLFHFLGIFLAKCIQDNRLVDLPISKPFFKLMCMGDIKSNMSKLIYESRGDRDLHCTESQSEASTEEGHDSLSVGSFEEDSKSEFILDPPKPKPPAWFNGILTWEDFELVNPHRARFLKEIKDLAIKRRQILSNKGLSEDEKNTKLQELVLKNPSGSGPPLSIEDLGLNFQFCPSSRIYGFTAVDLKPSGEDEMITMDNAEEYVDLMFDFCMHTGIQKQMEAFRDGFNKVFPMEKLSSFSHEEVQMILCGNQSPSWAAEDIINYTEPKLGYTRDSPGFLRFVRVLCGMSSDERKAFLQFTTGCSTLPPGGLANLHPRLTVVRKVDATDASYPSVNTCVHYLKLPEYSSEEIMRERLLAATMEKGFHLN

In the case of `COc1ccc2c(c1)CCCN2C(=O)CCl` [KB02], the Liganded result is “YES” in assay [1] (RRP8 Res# 451, uniprot O43159); “YES” in assay [2] (HECTD1 Res# 1855, uniprot Q9ULT8); “YES” in assay [3] (RNF40 Res# 890, uniprot O75150); “YES” in assay [4]. The percent_inhibition in assay [3] (500 uM, UniProt O75150) was found to be 24%.
Take `O=C(CCl)Nc1cc(C(F)(F)F)cc(C(F)(F)F)c1` [KBO3]: the “100 Max” value in assay [1] (uniprot O43159) is 14.62; in assay [2] (uniprot Q9ULT8, unit assumed), 1.2%; in assay [3] (uniprot O75150, in % (unit assumed)), −5.2; in assay [4] (uniprot P53384, in % (unit assumed)), 28.64. Moreover, the 100 ave in assay [1] (uniprot O43159) was −3.99; in assay [2] (uniprot Q9ULT8), 0.1; in assay [3] (uniprot O75150), −9.9; in assay [4] (uniprot P53384), 7.3775. The “500 Max” value in assay [1] (uniprot O43159) was determined as 57.64; in assay [2] (uniprot Q9ULT8, unit assumed), 72.6%; in assay [3] (uniprot O75150), 29.2; in assay [4] (uniprot P53384), 75.8. In addition, the 500 ave is listed as 48.93 in assay [1] (uniprot O43159), 72.6 in assay [2] (uniprot Q9ULT8), 24.5 in assay [3] (uniprot O75150) and 55.66 in assay [4] (uniprot P53384). Moreover, in assay [4], the Liganded result is “YES”.
